Data published in patent US20240226107A1, “UBIQUITIN-SPECIFIC PROTEASE 1 (USP1) INHIBITOR” (SIMCERE ZAIMING PHARMACEUTICAL CO., LTD., priority 2021, published 2024).
In brackets after ≈: the same amount, converted by molar mass.

Legend:
[1] = Caco-2 permeability assay; type: in vitro ADME; settings: human, pH 7.4
Method: The apparent permeability coefficient (Papp) of the analytical drug was determined by liquid chromatography-mass spectrometry (LC-MS/MS) through a Caco-2 cell model.
In this test example, Caco-2 cells were purchased from American Type Culture Collection (ATCC); 4-hydroxyethyl piperazine ethane sulfonic acid (HEPES) was purchased from Beijing Solarbio Science & Technology Co., Ltd.; Hanks' balanced salt solution (HBSS) and non-essential amino acids (NEAA) were purchased from ThermoFisher Scientific; penicillin, streptomycin, and trypsin/EDTA were purchased from Solarbio; fetal bovine serum (FBS) and DMEM medium were purchased from Corning; HTS-96-well Transwell plates and other sterile consumables were purchased from Corning; Millicell resistance measuring system was purchased from Millipore; Cellometer®K2 was purchased from Nexcelom Bioscience; Infinite 200 PRO microplate reader was purchased from Tecan; and MTS2/4 orbital shaker was purchased from IKA Labortechnik.
Caco-2 cells were cultured in a culture flask. […] Cells at a confluency of 70-90% can be used to inoculate the Transwell. Prior to cell inoculation, 50 μL of cell culture medium was added to each well of the upper Transwell chamber and 25 mL of cell culture medium was added to the lower plate. The plate was incubated in an incubator (37° C., 5% CO2) for 1 h, and then inoculated with cells. After cell digestion, the cell suspension was pipetted and transferred to a round bottom centrifuge tube for centrifugation at 120 g for 5 min. […] The medium was changed as follows: transwell chambers were separated from the receiver plate, medium in the receiver plate was discarded, then medium in the Transwell chambers was discarded, and finally, 75 μL of fresh medium was added to each chamber, and 25 mL of fresh medium was added to the receiver plate.
After approximately 14 days of culture, the Caco-2 cells reached the confluency and completed differentiation. In this case, the cells can be applied to permeability assay. The monolayer resistance was measured with a resistance meter (Millipore, USA) and the resistance per well was recorded. After the measurement, the Transwell plate was put back to the incubator. Calculation of resistance: measured resistance value (ohms)×membrane area (cm^2)=TEER value (ohm·cm^2); if TEER value <230 ohms·cm^2, the well can not be used for permeability assay.
In 900 mL of purified water, 2.38 g HEPES and 0.35 g sodium bicarbonate were dissolved, then 100 mL of 10×HBSS was added and stirred well, pH was adjusted to 7.4, and finally, the resulting solution was filtered to obtain 1 L of transport buffer (HBSS, 10 mM HEPES, pH 7.4).
A DMSO stock solution of 1 mM of compound to be tested was diluted with the transport buffer to obtain 5 μM test solution. The control compound digoxin or minoxidil was diluted with DMSO to 2 mM, and diluted with the transport buffer described above to 10 μM to obtain a control compound test solution. In addition, DMSO was also diluted with the transport buffer described above to a receiving end solution containing 0.5% DMSO.
The Transwell plate was removed from the incubator. Monolayer cell membranes were rinsed twice with the transport buffer (10 mM HEPES, pH 7.4) and incubated at 37° C. for 30 min.
The transport rate of the compound from the apical side to the basolateral side was determined. […]
The transport rate of the compound from the basolateral side to the apical side was determined.

[2] = biological target: CYP2D6 (Homo sapiens (Human), UniProt P10635); test: CYP enzyme inhibition in pooled human liver microsomes (bufuralol hydrochloride); type: in vitro ADME
Method: (§1) Typical substrate metabolic responses of five major human CYP subtypes (CYP1A2, CYP2C9, CYP2C19, CYP2D6, CYP3A4) were evaluated using 150-donor pooled human liver microsomes (purchased from Corning, Cat. No.: 452117). The influence of different concentrations of each compound to be tested on metabolic responses of phenacetin (CYP1A2), diclofenac sodium (CYP2C9), S-mephenytoin (CYP2C19), bufuralol hydrochloride (CYP2D6), and midazolam (CYP3A4) was determined by liquid chromatography-mass spectrometry (LC/MS/MS). […] Then 200 μL of acetonitrile solution containing 3% formic acid and 40 nM internal standard verapamil was added and centrifuged at 4000 rpm for 50 min. The mixture was cooled on ice for 20 min and centrifuged at 4000 rpm for 20 min to precipitate the protein. Then 200 μL of supernatant was analyzed by LC-MS/MS. The peak area was calculated from the chromatogram. The residual activity ratio (%) was calculated according to the following equation: Peak area ratio=metabolite peak area/internal standard peak area Residual activity ratio (%)=peak area ratio of compounds-to-be-tested group/peak area ratio of blank group The half inhibitory concentration (IC50) for CYP was calculated by Excel XLfit 5.3.1.3.

[3] = Solubility (PBS pH 7.4) of compounds from DMSO solution; type: physicochemical; settings: aqueous buffer, kinetic from dmso stock, 10 mM DMSO solution into PBS pH 7.4, 25° C., read-out: Calculated solubility
Method: The solubility (PBS pH 7.4) of a compound to be tested was determined by LC/MS/MS. 6 μL of 10 mM DMSO solution of the compound to be tested was mixed with 194 μL of DMSO to prepare 300 μM compound solution. In 490 μL of water and acetonitrile (1:1) containing an internal standard, 5 μL of the solution and 5 μL of PBS pH 7.4 solution were mixed to prepare 3 μM standard concentration solution of the sample to be tested. The dilution factor of the standard solution can be adjusted according to the strength of response signals in LC/MS.
To 485 μL of PBS pH 7.4 solution, 15 μL of 10 mM DMSO solution of the compound to be tested was added. […] After shaking, the stir bar was removed, and the sample was transferred to a filter plate and filtered using a vacuum manifold. In 490 μL of water and acetonitrile (1:1) containing an internal standard, 5 μL of filtrate and 5 μL of PBS pH 7.4 solution were mixed to prepare a solution to be tested. The dilution factor can be adjusted according to the solubility value and the strength of response signals in LC/MS.
The resulting samples were determined by LC/MS/MS. The sample solubility was calculated from peak areas of the solution of the compound to be tested and the standard concentration solution, according to the following equation:
[formula] • [Sample] is the solubility of the sample to be tested; • Area ratiosample is the ratio of the peak area of sample in the sample to be tested to the peak area of the internal standard; • INJ VOL STD is the injection volume of the standard concentration solution; • DFsample is the dilution factor of the solution of the sample to be tested; • [STD] is the concentration of the standard concentration solution; • INJ VOLsample is the injection volume of the solution of the sample to be tested; and • Area ratio STD is the ratio of the peak area of sample in the standard concentration solution to the peak area of the internal standard.

[4] = Metabolic stability in vitro in rat hepatocytes; type: in vitro ADME; settings: read-out: Intrinsic clearance
Method: The concentration of each compound in the reaction system was measured by LC/MS/MS to calculate the intrinsic clearance of the compounds to be tested, and evaluate the metabolic stability in vitro in rat hepatocytes.
To the incubation plate, 198 μL of 0.5×10^6 cells/mL rat hepatocyte mixture and 2.0 μL of 100 μM compound to be tested or positive control were added to initiate reaction. Incubation was performed at 900 rpm at 37° C. […] Then the mixture was vortex-mixed for 5 min. […] Then 100 μL of supernatant of each compound was transferred to a 96-well sample plate, and 100 μL of purified water was added to dilute the sample. The resulting samples were quantified by ion chromatograms. The residual rate was calculated from peak areas of the compounds to be tested or the positive control. The slope k was determined using Microsoft Excel by linear regression of natural logarithm of the residual rate to the incubation time. The intrinsic clearance (in vitro CLint, μL/min/10^6 cells) was calculated from the slope value according to the following equation: […]

[5] = Metabolic stability in vitro in human hepatocytes; type: in vitro ADME; settings: read-out: Intrinsic clearance
Method: The concentration of each compound in the reaction system was measured by LC/MS/MS to calculate the intrinsic clearance of the compounds to be tested, and evaluate the metabolic stability in vitro in human hepatocytes.
To the incubation plate, 198 μL of 0.5×10^6 cells/mL human hepatocyte mixture and 2.0 μL of 100 μM compound to be tested or positive control were added to initiate reaction. Incubation was performed at 900 rpm at 37° C. […] Then the mixture was vortex-mixed for 5 min. […] Then 100 μL of supernatant of each compound was transferred to a 96-well sample plate, and 100 μL of purified water was added to dilute the sample.
The resulting samples were quantified by ion chromatograms. The residual rate was calculated from peak areas of the compounds to be tested or the positive control. The slope k was determined using Microsoft Excel by linear regression of natural logarithm of the residual rate to the incubation time. The intrinsic clearance (in vitro CLint, μL/min/10^6 cells) was calculated from the slope value according to the following equation: […]

[6] = biological target: CYP2C19 (Homo sapiens (Human), UniProt P33261); test: CYP enzyme inhibition in pooled human liver microsomes (S-mephenytoin); type: in vitro ADME
Sequence of CYP2C19 (P33261 whole entry): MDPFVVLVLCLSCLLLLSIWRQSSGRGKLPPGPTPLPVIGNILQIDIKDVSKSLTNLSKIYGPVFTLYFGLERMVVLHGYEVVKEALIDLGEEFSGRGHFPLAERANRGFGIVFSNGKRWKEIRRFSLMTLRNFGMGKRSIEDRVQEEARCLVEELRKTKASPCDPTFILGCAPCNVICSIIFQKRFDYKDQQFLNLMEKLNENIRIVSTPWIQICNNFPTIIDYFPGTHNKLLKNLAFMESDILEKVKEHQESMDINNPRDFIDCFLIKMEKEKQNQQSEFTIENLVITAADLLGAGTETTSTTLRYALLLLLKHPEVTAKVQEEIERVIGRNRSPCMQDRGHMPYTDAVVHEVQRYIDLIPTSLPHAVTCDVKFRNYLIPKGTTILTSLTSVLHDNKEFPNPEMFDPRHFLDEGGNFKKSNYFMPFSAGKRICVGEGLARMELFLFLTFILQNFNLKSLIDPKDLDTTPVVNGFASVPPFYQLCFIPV
Method: as §1

[7] = test system: MDA-MB-436 cells;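 also: MDA-MB-436 proliferation over 7 days with compound, viability read as ATP luminescence (CellTiter-Glo), inhibition relative to DMSO-only wells, day 0 signal as background, GI50 from four-parameter fit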
Method: Assay based on CellTiter-Glo luminescent cell viability assay system.
The assay kit (CellTiter-Glo® Luminescent Cell Viability Assay) was purchased from Promega, with Cat. No. of G7573, and was stored at −30° C. after subpackage. The kit is a homogeneous assay method for assaying the number of viable cells in a culture based on quantitative determination of ATP. The kit produces a luminescence signal proportional to the amount of ATP present, and the amount of ATP is directly proportional to the number of cells in the culture.
The cultured cells were trypsinized, collected and centrifuged, then resuspended at an adjusted concentration in a culture solution (DMEM+10% FBS), and cultured overnight on a 384-well plate (400 cells/20 μl/well) in a cell incubator with 5% CO2 at 37° C. An ECHO instrument was used to added the compound and pure DMSO onto each well of the 384-well plate. The total volume of the compound and DMSO is 100 nL, and the instrument obtains gradient diluted sample concentrations through different ratios. To each well, 30 μL of culture solution was added, and after mixing by centrifugal oscillation and re-centrifugation, the cells were cultured in a cell incubator for 7 days (one column of cells was subjected to CTG assay on the day of dosing). After day 7, 25 μL of CTG assay solution was added to each well, and after mixing by centrifugal oscillation and re-centrifugation, the cells were placed at room temperature away from light for 10 min. In terms of chemiluminescence signals, an Envision plate reader (PerkinElmer, emission wavelength: 400-700 nm) was used to measure a signal in each well. The chemiluminescence value [RLU]cpd on day 7 was obtained for the treatment group, the chemiluminescence value [RLU]cell on day 7 was obtained for the non-treatment group (given DMSO only), and the chemiluminescence value [RLU]background on day 0 was obtained for the parallel non-treatment group (given DMSO only) by CTG assay on day 0. […] In the following equation, x represents the concentration of the compound in a logarithmic form; and F(x) represents an effect value (inhibition rate of proliferation at the concentration): F(x)=(A+((B−A)/(1+((C/x)^D)))). A, B, C, and D are four parameters.

[8] = biological target: CYP3A4 (Homo sapiens (Human), UniProt P08684); test: CYP enzyme inhibition in pooled human liver microsomes (midazolam); type: in vitro ADME
Sequence of CYP3A4 (P08684 whole entry): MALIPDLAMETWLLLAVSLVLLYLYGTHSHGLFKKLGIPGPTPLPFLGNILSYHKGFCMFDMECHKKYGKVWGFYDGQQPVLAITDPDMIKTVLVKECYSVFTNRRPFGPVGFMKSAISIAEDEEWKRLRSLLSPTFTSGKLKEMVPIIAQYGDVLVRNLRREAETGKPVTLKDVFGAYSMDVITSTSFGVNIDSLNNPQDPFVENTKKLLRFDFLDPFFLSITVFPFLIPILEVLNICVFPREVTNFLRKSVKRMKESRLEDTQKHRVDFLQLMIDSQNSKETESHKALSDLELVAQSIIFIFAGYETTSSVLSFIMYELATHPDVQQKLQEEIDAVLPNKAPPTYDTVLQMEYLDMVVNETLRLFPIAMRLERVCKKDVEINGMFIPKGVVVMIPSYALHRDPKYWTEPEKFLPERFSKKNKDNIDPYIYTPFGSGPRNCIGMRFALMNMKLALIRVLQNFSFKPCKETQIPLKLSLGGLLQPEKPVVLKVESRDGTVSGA
Method: as §1

Sequence of CYP2D6 (P10635 whole entry): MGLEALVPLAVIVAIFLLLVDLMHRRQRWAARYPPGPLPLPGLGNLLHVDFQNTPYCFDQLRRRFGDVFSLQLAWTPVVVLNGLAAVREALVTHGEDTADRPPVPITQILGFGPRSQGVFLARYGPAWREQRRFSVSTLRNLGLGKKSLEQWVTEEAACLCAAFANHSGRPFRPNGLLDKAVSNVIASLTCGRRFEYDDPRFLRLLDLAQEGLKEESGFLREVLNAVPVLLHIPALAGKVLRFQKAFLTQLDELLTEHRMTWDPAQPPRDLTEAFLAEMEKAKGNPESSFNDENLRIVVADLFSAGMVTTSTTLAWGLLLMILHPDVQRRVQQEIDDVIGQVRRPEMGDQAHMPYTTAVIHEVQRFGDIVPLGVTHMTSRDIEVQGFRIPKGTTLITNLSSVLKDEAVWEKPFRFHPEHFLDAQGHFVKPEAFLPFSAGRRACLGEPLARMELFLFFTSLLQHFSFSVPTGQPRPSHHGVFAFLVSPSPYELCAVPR

COc1ncnc(C2CC2)c1-c1ncc2c(n1)N(Cc1ccc(-c3nc(C(F)(F)F)cn3C)cc1)CC(=O)N2C [Compound 11, 2-(4-cyclopropyl-6-methoxypyrimidin-5-yl)-5-methyl-8-(4-(1-methyl-4-(trifluoromethyl)-1H-imidazol-2-yl)benzyl)-7,8-dihydropteridin-6(5H)-one]
Papp A→B at 2 h, 5 μM ([1]; Caco-2, 5 μM, 2 h, apical to basolateral): 4.9 ×10⁻⁶ cm/s
Papp B→A at 2 h, 5 μM ([1]; Caco-2, 5 μM, 2 h, basolateral to apical): 17.6 ×10⁻⁶ cm/s
efflux ratio at 2 h, 5 μM ([1]; Caco-2, Papp (B−A)/Papp (A−B)): 3.6
IC50 [2]: > 30 µM
solubility at 2 h [3]: 214 µM (≈ 118 µg/mL)
hepatocyte CLint at 1 μM [4]: < 1 µL/min/1e6 cells
hepatocyte CLint at 1 μM [5]: < 1 µL/min/1e6 cells
IC50 [6]: 17.1 µM
GI50 [7]: 0.0328 µM
IC50 [8]: > 30 µM
